According to article PMC12766724, “Synthesis, Anthelmintic Activity, and Mechanism of Action of 5‑Aryl‑1H‑indoles” (Journal of Agricultural and Food Chemistry, 2025):

How the values were obtained:
Assay type in all cases: in vivo, Caenorhabditis elegans
[1] = system: C. elegans wild-type and MCII mutants; experiment: Recovery of pretreated worms on WMicrotracker ONE; conditions: 5 or 10 μM for 72 h, then wash-out and recovery
Description: (§1) Briefly, for evaluation of the acute effect of the compounds, age-synchronized young adults of each strain, kept in S complete medium supplemented with E. coli OP50 (3 mg/mL, fresh weight), were transferred onto microtiter plates (96-well, U bottom), and their initial motility was measured for 30 min. […] Afterward, the compounds were washed away, and worms, supplemented with fresh liquid media and food, were distributed onto 96-well plates and allowed to recover. Their activity was measured using WMicrotracker ONE at the indicated time points.
C. elegans L1 larvae were exposed to 5 or 10 μM of the compounds for 72 h, after which the compounds were washed away, and the recovery of the nematodes was evaluated using WMicrotracker.

[2] = system: mitochondrial membrane potential of C. elegans young adults; experiment: Mitochondrial membrane potential measurement; conditions: 100 μM; 24 h
Description: After 24 h, the compounds were washed away. Then, the mitochondrial membrane potential was measured using a specialized fluorescent dye (kit MAK147, Sigma-Aldrich). The kit was used according to the manufacturer’s instructions with modified incubation temperature and time (20 °C, 4 h) to account for the fact that living intact worms were used instead of cell cultures. , Dyed worms (approximately 200 per well) were distributed onto a black 96-well plate, and the fluorescence was measured using a Tecan Infinite 200 Pro plate reader.
Determining the mechanism of action of compounds is always challenging; however, the nature of their effect, as well as the structural similarity to compounds with known properties, can provide useful insights. One of our hypotheses was that the compounds might interfere with energy production. We based this assumption on the behavior of compound-treated worms (delayed development, lower fecundity, and relatively rapid decrease in motility rates but not necessarily death). Impaired mitochondrial function would be accompanied by a decrease in mitochondrial membrane potential (MMP).

C. elegans N2 = experiment: Scoring of developmental rates, L1 exposed 5 days; parameters: key: 1 = dead/arrested at L1 … 5 = healthy, normal reproduction
Excerpt: (§2) Dead or mostly immobile worms, arrested at the L1 stage, received a score of 1. Populations with severely delayed development were scored as 2. More developmentally advanced, but still obviously delayed worms were given the score of 3. Adult worms that produce a noticeably lower number of progeny received a score of 4. Healthy worms that reproduce normally (i.e., hundreds of eggs and larvae are present) were scored as 5 (see Figure C for representative images). In a typical, correctly prepared experiment, vehicle-treated populations should receive a score of 5, while worms treated with ivermectin (positive control) should receive a score of 1. […]

[3] = system: C. elegans complex II mutant RP2702; experiment: Scoring of developmental rates, L1 exposed 5 days
Excerpt: as §2

[4] = system: C. elegans complex II mutant RP2700; experiment: Scoring of developmental rates, L1 exposed 5 days
Excerpt: as §2

[5] = system: C. elegans complex II mutant RP2699; experiment: Scoring of developmental rates, L1 exposed 5 days
Excerpt: as §2

[6] = system: C. elegans MCII mutant RP2699; experiment: Acute motility of young adults on WMicrotracker ONE; conditions: 50 μM; 24 h
Description: as §1, with “The effect of compounds on C. elegans N2 and SDH mutant strains was measured in a similar manner. Briefly,” for “Briefly,”
(§3) To experimentally support this promising initial finding, we tested the effect of i-19 against several C. elegans MCII mutant strains. These nematodes carry point mutations that result in amino acid changes in regions of subunits SDHC and SDHD that contribute to the formation of the ubiquinone-binding pocket, thereby influencing its shape and the ability of inhibitors to interact with the protein. […] The compounds were tested in multiple setups. At first, young adults were exposed to higher doses (100, 50, and 10 μM) of the compounds for up to 48 h, and changes in motility were evaluated using WMicrotracker. For both compounds, we observed a less pronounced decrease in movement rates of MCII mutants compared to wild-type worms, in both a dose- and time-dependent manner (Figure ).

C. elegans wild-type N2 = experiment: as above; conditions: 50 μM; 24 h
Description: as §1, with “The effect of compounds on C. elegans N2 and SDH mutant strains was measured in a similar manner. Briefly,” for “Briefly,”
as §3

Question: What does the source list for `Clc1ccc(-c2ccc3[nH]ccc3c2)cc1` [i-19]?
Answer: resistance of MCII mutants compared to wild-type [1]: increased resistance of the MCII mutants; MMP signal lower than in vehicle-treated control animals [2]: approximately 80%; mean score (1-5) (C. elegans N2; 1.336 µM): 5; mean score (1-5) (C. elegans N2; 1.782 µM): 4.222; mean score (1-5) (C. elegans N2; 2.376 µM): 4.889; mean score (1-5) (C. elegans N2; 3.168 µM): 4.889; mean score (1-5) (C. elegans N2; 4.224 µM): 4.667; mean score (1-5) (C. elegans N2; 5.631 µM): 4.444; mean score (1-5) (C. elegans N2; 7.509 µM): 4.667; mean score (1-5) (C. elegans N2; 10.011 µM): 4.444; mean score (1-5) (C. elegans N2; 13.348 µM): 4; mean score (1-5) (C. elegans N2; 17.798 µM): 2.556; mean score (1-5) (C. elegans N2; 23.731 µM): 1.333; mean score (1-5) (C. elegans N2; 31.641 µM): 1; mean score (1-5) (C. elegans N2; 42.188 µM): 1; mean score (1-5) (C. elegans N2; 56.25 µM): 1; mean score (1-5) (C. elegans N2; 75 µM): 1; mean score (1-5) (C. elegans N2; 100 µM): 1; mean score (1-5) ([3]; 1.336 µM): 5; mean score (1-5) ([3]; 1.782 µM): 5; mean score (1-5) ([3]; 2.376 µM): 5; mean score (1-5) ([3]; 3.168 µM): 5; mean score (1-5) ([3]; 4.224 µM): 4.889; mean score (1-5) ([3]; 5.631 µM): 4.889; mean score (1-5) ([3]; 7.509 µM): 5; mean score (1-5) ([3]; 10.011 µM): 4.444; mean score (1-5) ([3]; 13.348 µM): 4.889; mean score (1-5) ([3]; 17.798 µM): 4.667; mean score (1-5) ([3]; 23.731 µM): 3.889; mean score (1-5) ([3]; 31.641 µM): 1.111; mean score (1-5) ([3]; 42.188 µM): 1; mean score (1-5) ([3]; 56.25 µM): 1; mean score (1-5) ([3]; 75 µM): 1; mean score (1-5) ([3]; 100 µM): 1; mean score (1-5) ([4]; 1.336 µM): 4.778; mean score (1-5) ([4]; 1.782 µM): 4.778; mean score (1-5) ([4]; 2.376 µM): 4.667; mean score (1-5) ([4]; 3.168 µM): 4.889; mean score (1-5) ([4]; 4.224 µM): 4.778; mean score (1-5) ([4]; 5.631 µM): 4.778; mean score (1-5) ([4]; 7.509 µM): 4.667; mean score (1-5) ([4]; 10.011 µM): 4.667; mean score (1-5) ([4]; 13.348 µM): 4.333; mean score (1-5) ([4]; 17.798 µM): 3.667; mean score (1-5) ([4]; 23.731 µM): 3.444; mean score (1-5) ([4]; 31.641 µM): 1.111; mean score (1-5) ([4]; 42.188 µM): 1; mean score (1-5) ([4]; 56.25 µM): 1; mean score (1-5) ([4]; 75 µM): 1; mean score (1-5) ([4]; 100 µM): 1; mean score (1-5) ([5]; 1.336 µM): 4.667; mean score (1-5) ([5]; 1.782 µM): 4.667; mean score (1-5) ([5]; 2.376 µM): 4.556; mean score (1-5) ([5]; 3.168 µM): 4.444; mean score (1-5) ([5]; 4.224 µM): 4.556; mean score (1-5) ([5]; 5.631 µM): 4.333; mean score (1-5) ([5]; 7.509 µM): 4.444; mean score (1-5) ([5]; 10.011 µM): 4.333; mean score (1-5) ([5]; 13.348 µM): 4.111; mean score (1-5) ([5]; 17.798 µM): 3.111; mean score (1-5) ([5]; 23.731 µM): 2.778; mean score (1-5) ([5]; 31.641 µM): 2.111; mean score (1-5) ([5]; 42.188 µM): 1; mean score (1-5) ([5]; 56.25 µM): 1; mean score (1-5) ([5]; 75 µM): 1; mean score (1-5) ([5]; 100 µM): 1; decrease of mean activity counts [6]: 46%; decrease of mean activity counts (C. elegans wild-type N2): 89%
